Converted amounts (≈) assume the structure as drawn.
Legend:
Xanthomonas citri = experiment: microbe, parasite or virus in culture; type: cell-based, Xanthomonas citri subsp. citri
SecA of Ca. L. asiaticus = SecA of Ca. L. asiaticus (Candidatus Liberibacter asiaticus, UniProt A0ABM5NFG5); experiment: biochemical
CLAS populations = experiment: Effect on CLAS populations, mean Ct by quantitative PCR (Example 2)
[1] = tested on: Agrobacterium tumefaciens; experiment: microbe, parasite or virus in culture; type: cell-based
Bradyrhizobium japonicum = experiment: microbe, parasite or virus in culture; type: cell-based
Liberibacter crescens = experiment: microbe, parasite or virus in culture; type: cell-based
Mesorhizobium loti = experiment: microbe, parasite or virus in culture; type: cell-based
Sinorhizobium meliloti = experiment: microbe, parasite or virus in culture; type: cell-based
A. tumefaciens = experiment: microbe, parasite or virus in culture; type: cell-based; conditions: Agrobacterium tumefaciens, 24 h
CLAS = CLAS transmission rate using graft-based approach (Example 3); type: in vivo; conditions: budwood treated at 500 μg/ml, grafted onto Valencia trees
Procedure: HLB-infected budwoods were collected in HLB infected grove in teaching block at CREC. The presence of CLAS titers in budwood was confirmed by qPCR.
C16 and streptomycin were applied at the rate of 500 μg/ml; water-treated budwood was used as check. The budwoods were placed in a glass bottle containing either treatment or water as check. The glass bottles were kept in a ventilation hood with light on to increase the evaporation rate, therefore, promoting the uptake of antibiotics. Leaf and bark samples were collected from each budwood and 100 mg were accurately weighed and used for DNA extraction with Promega genomic DNA extraction kit. CLAS populations in each sample were determined using standard qPCR protocol. Each DNA sample was run in triplicate wells.
After overnight treatment, the antibiotic-treated budwood was grafted onto 2-3 years old Valencia trees. A total of 15 trees were grafted for each treatment. […] Four leaves from the main stem of Valencia trees were sampled for DNA extraction and determination of CLAS populations.

Rhizobium etli = experiment: microbe, parasite or virus in culture; type: cell-based

CCc1nnc(NC(=O)c2cc3c([nH]c4ccccc43)c(C)n2)s1 [Compound C16, N-(5-ethyl-1,3,4-thiadiazol-2-yl)-1-methyl-9H-beta-carboline-3-carboxamide]
MBC (Xanthomonas citri): 32 µg/mL (≈ 94.8 µM)
MIC (Xanthomonas citri): 16 µg/mL (≈ 47.4 µM)
IC50 (SecA of Ca. L. asiaticus): 250 nM
inhibition of ATPase activity of SecA, in words (SecA of Ca. L. asiaticus): high activity
mean Ct value (CLAS populations) (CLAS populations; 2 days after treatment): 23.76 a
mean Ct value (CLAS populations) (CLAS populations; 4 days after treatment): 25.43 b
mean Ct value (CLAS populations) (CLAS populations; Before treatment): 22.71 a
CLAS population reduction as compared to water-treated control (CLAS populations; P<0.05, Fisher's LSD): significant effect
MBC [1]: 128 µg/mL (≈ 379 µM)
MIC [1]: 64 µg/mL (≈ 190 µM)
MBC (Bradyrhizobium japonicum; 24 hrs): 16 µg/mL (≈ 47.4 µM)
MIC (Bradyrhizobium japonicum; 24 hrs): 16 µg/mL (≈ 47.4 µM)
MBC (Bradyrhizobium japonicum; 120 hrs): 32 µg/mL (≈ 94.8 µM)
MIC (Bradyrhizobium japonicum; 120 hrs): 32 µg/mL (≈ 94.8 µM)
MBC (Liberibacter crescens; 24 h): 16 µg/mL (≈ 47.4 µM)
MIC (Liberibacter crescens; 24 h): 8 µg/mL (≈ 23.7 µM)
MBC (Liberibacter crescens; 120 h): 32 µg/mL (≈ 94.8 µM)
MIC (Liberibacter crescens; 120 h): 16 µg/mL (≈ 47.4 µM)
MBC (Mesorhizobium loti): 16 µg/mL (≈ 47.4 µM)
MIC (Mesorhizobium loti): 8 µg/mL (≈ 23.7 µM)
MBC (Sinorhizobium meliloti): 64 µg/mL (≈ 190 µM)
MIC (Sinorhizobium meliloti): 32 µg/mL (≈ 94.8 µM)
MBC (A. tumefaciens): 256 µg/mL (≈ 759 µM)
CLAS transmission rate (% trees tested positive for CLAS) (CLAS; 3 months after grafting): 6.7%
CLAS transmission rate (% trees tested positive for CLAS) (CLAS; 6 months after grafting): 80%
MBC (Rhizobium etli; 24 hrs): 16 µg/mL (≈ 47.4 µM)
MIC (Rhizobium etli; 24 hrs): 16 µg/mL (≈ 47.4 µM)
MBC (Rhizobium etli; 120 hrs): 32 µg/mL (≈ 94.8 µM)
MIC (Rhizobium etli; 120 hrs): 32 µg/mL (≈ 94.8 µM)
